Consider 1 compound from US20230270721A1, “INHIBITION OF BAX-MEDIATED CELL DEATH BY ELTROMBOPAG” (Albert Einstein College of Medicine, priority 2020, published 2023).

Like-named read-outs stand apart in the source and are kept apart here.

For test [1], the target named is T1, BAX-4C R134E R145E (Homo sapiens, UniProt Q07812, C126S/C62S/R134E/R145E/S4C).
T1 construct: Human full-length (1-192) wild-type BAX (Q07812); made in house; host or cells: E. coli BL21 (DE3) CodonPlus (DE3)-RIPL
Put plainly: Microscale thermophoresis (MST) direct binding, double mutant. The settings on record: double mutant versus wild type BAX-4C. As to the method: (§1) Recombinant BAX C62S-C126S-S5C (4C), previously established for evaluating BAX (Garner, T.P., et al. Nat Chem Biol 15, 322-330 (2019)) binding compounds with MST, or BAX C62S-C126S-S5C-R134E-R145E (R134E-R145E-4C) was labeled at cysteine using the Monolith Protein Labeling Kit Red Maleimide (NanoTemper Technologies) according to the instructions of the manufacturer (Garner, T.P., et al. Nat Chem Biol 15, 322-330 (2019)). Briefly, 10 µM protein was incubated with 0.9 equivalents of dye in MST buffer (100 mM potassium phosphate, pH 7.4, 150 mM NaCI) in the dark at room temperature (22-25° C.) for 1 hr. Unreacted dye was quenched using 5 mM DTT and removed using the manufacturer-provided buffer exchange column. […] Samples were loaded into standard glass capillaries (Monolith NT.155 Capillaries) and analyzed by MST using a Monolith NT.115 Blue/Red, LED power and IR laser power of 80%. Fraction bound and error was generated by NanoTemper software (MO.Affinity Analysis), and KD values were determined using GraphPad Prism nonlinear fit four-parameter agonist versus response with restraints for 0 and 1 fraction bound.
With this known, the EO docking poses were reevaluated, and the top pose featuring an ionic interaction between the EO-carboxylate and sidechain of R145 was analyzed (FIGS. 2E, 2F, and 2G). […]
On the technique in general: Microscale thermophoresis detects binding through changes in fluorescence in a small temperature gradient.

Test [2] deals with T2, BAX-4C (Homo sapiens, UniProt Q07812, C126S/C62S/S4C).
T2 construct: Human full-length (1-192) wild-type BAX (Q07812); made in house; host or cells: E. coli BL21 (DE3) CodonPlus (DE3)-RIPL
Put plainly: Microscale thermophoresis (MST) direct binding. To be noted: 50 nM labeled BAX; read-out: dissociation constant KD. Here is the method: as §1, with “hr.” for “hr. Unreacted dye was quenched using 5 mM DTT and removed using the manufacturer-provided buffer exchange column.”
To test this hypothesis, a competitive fluorescence polarization assay (FPA) (Gavathiotis, E., et al. Nat Chem Biol 8, 639-645 (2012)) based on the interaction between BAX and fluorescently-labeled stapled BIM-BH3 peptide (FITC-BIM-SAHB) was used (Gavathiotis, E., et al. Nature 455, 1076-1081 (2008)). […]

The target in test [3] is T3, BAX (Homo sapiens, UniProt Q07812).
T3 construct: Human full-length (1-192) wild-type BAX (Q07812); made in house; host or cells: E. coli BL21 (DE3) CodonPlus (DE3)-RIPL
Nature of the test: Liposomal translocation assay with NBD-labeled BAX. The format is biochemical. To be noted: for IC50: NBD-labeled BAX 800 nM, 120 minutes. As to the method:
Lipids (Avanti Polar Lipids) at the following ratio, phosphatidylcholine 48%, phosphatidylinositol 10%, dioleoyl phosphatidylserine 10%, phosphatidylethanolamine, 28%, and tetraoleoyl cardiolipin 4%, were mixed in a total of 1 mg, dried and resuspended in 10 mM HEPES, pH 7, 200 mM KCl, and 5 mM MgCl2. The resulting slurry was vortexed for 10 minutes and sonicated in a sonicating water bath for 10 minutes. Liposomes were formed by extrusion of the suspension using Avanti Mini-Extruder with polycarbonate membranes of 0.1 µm pore size (Avanti Polar Lipids) followed by passage through a CL2B Sepharose column (GE Healthcare). Recombinant wild type BAX was labeled at cysteine by overnight incubation at 4° C. with 10 equivalents of iodoamino-NBD (IANBD, Thermo Fisher) and 3 equivalents of TCEP to maintain reduced cysteine. Labeled BAX (BAX-NBD) was separated from unreacted IANBD by gel filtration (Econo-Pac 10 DG desalting column, BioRad) and used immediately. […] Upon BAX-NBD translocation, the NBD fluorophore was excluded from bulk water through contact with the liposomal membrane leading to an increase in fluorescence intensity. Fluorescence (λex = 475 nm and λem = 530 nm) was measured at 1-minute intervals at 37° C. indicated using a Tecan Infinite M1000 plate reader. The percentage translocation at any given time point was calculated as percentage translocation=[((F-F0)/(F100-F0))(100)]-[((FS-FS0)/(FS100-FS0))(100)] where F0 and F100 are baseline and maximal fluorescence, respectively and FS, FS0, and FS100 are the current fluorescence, baseline fluorescence, maximal fluorescence of solution BAX incubated in the absence of liposomes. The subtraction of the percent translocation of solution BAX is required to correct for NBD fluorescence bleaching that occurs throughout the reaction. […]
Prior to permeabilizing membranes, activated BAX must first translocate to the membrane (Lovell, J. F. et al. Cell 135, 1074-1084, (2008)). To explore this earlier step in BAX activation, an NBD-fluorescence-based translocation assay was used. […]

As usually defined, the Kd is the equilibrium constant for the complex coming apart. For orientation: IC50 means the concentration at which inhibition is half-maximal.

T3 sequence (Q07812 whole entry): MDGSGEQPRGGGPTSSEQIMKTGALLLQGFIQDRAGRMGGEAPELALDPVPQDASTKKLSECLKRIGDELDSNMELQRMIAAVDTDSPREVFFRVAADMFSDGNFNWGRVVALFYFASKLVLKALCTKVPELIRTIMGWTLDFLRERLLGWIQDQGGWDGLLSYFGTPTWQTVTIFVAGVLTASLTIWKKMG
T2 sequence (Q07812 whole entry S4C/C62S/C126S): as the sequence (Q07812 whole entry) above, with S4C, C62S, C126S counted along it
T1 sequence (Q07812 whole entry S4C/C62S/C126S/R134E/R145E): as the sequence (Q07812 whole entry) above, with S4C, C62S, C126S, R134E, R145E counted along it

On to `CC1=NN(c2ccc(C)c(C)c2)C(=O)/C1=N\Nc1cccc(-c2cccc(C(=O)O)c2)c1O` [EO, eltrombopag], for which the “affinity as determined by MST” value in test [1] was “markedly reduced affinity”. Moreover, the Kd in test [2] stood at 0.143 µM. The IC50 in test [3] (BIM BH3 1 µM, read-out: BIM IC50, inhibition of BAX translocation) was found to be 5.7 µM; in test [3] (tBID 200 nM, read-out: tBID IC50, inhibition of BAX translocation) it was 6.3 µM. The “heat-induced auto-translocation of BAX” value in test [3] (heat-induced, no BH3 activator) is listed as “capable of inhibiting heat-induced auto-translocation of BAX”.
